{
  "source": "patent US20250281574A1",
  "about": "(priority 2022, published 2025)",
  "key": {"[1]": {"tested_on": "C57BL/6 mice challenged with a lethal dose of lipopolysaccharide (LPS)", "assay": "LPS-induced lung injury mouse model of ARDS, survival", "type": "in vivo", "experimental": "C57BL/6 mice were pretreated with either 5.76 mg/kg aCT1 peptide, 5.76 mg/kg control peptide, or PBS vehicle control prior to inoculation with a lethal dose (35 mg/kg) of LPS. For FIG. 2A, n=20-22/group and p<0.0001 by Log-rank Mantel-Cox test; for FIG. 2B, n=5-8/group and p<0.001 by Log-rank Mantel-Cox test. Doses are reported as presented dose, with estimated animal body weight of 25 grams.\nStudies were undertaken to assess whether delivery of aCT1 to the respiratory tract in animal models of ARDS would reduce epithelial and endothelial breakdown, thereby preserving the air-liquid barrier while preventing fluid accumulation and reducing immune cell infiltration, resulting in the amelioration of ARDS pathology and preserving lung function to improve survival. Using a well characterized mouse model of ARDS, we investigated whether aCT1 applied directly to the lungs could inhibit severe endotoxin induced lung injury. C57BL/6 mice were intranasally challenged with a lethal dose of lipopolysaccharide (LPS) and were treated with aCT1 immediately prior to LPS administration (FIG. 2A), or six (6) hours post LPS exposure (FIG. 2B)."}, "[2]": {"tested_on": "cecal ligation and puncture (CLP) mouse model of sepsis", "assay": "Cecal ligation and puncture (CLP) mouse model of sepsis", "type": "in vivo", "text": "3A. For FIG. 3A, n=7-9/group and p=0.052 by Log-rank Mantel-Cox test; for FIG. 3B, n=8/group and p<0.05 by Log-rank Mantel-Cox test. Doses are reported as administered dose, with estimated animal body weight of 25 grams.\nRepresentative images are shown."}, "[3]": {"tested_on": "normal human bronchial epithelial (NHBE) cells", "assay": "Trans-epithelial electrical resistance (TER) after H2O2 exposure", "type": "cell-based", "settings": "NHBE monolayers; aCT1 pre-treatment; 500 mM H2O2; 72 hours", "experimental": "(n=3/group; p-values reported at 72 hours compared to H2O2).\n(§1) To determine if aCT1 treatment preserves junctional integrity in human lung cells, human bronchial epithelial cells (NHBEs) were grown as confluent monolayers on Transwell inserts and trans-epithelial electrical resistance (TER) recorded. TER readings measure electrical resistance across a cell monolayer and provide a quantitative metric of intercellular junction integrity."}, "[4]": {"tested_on": "normal human bronchial epithelial (NHBE) cells", "assay": "Trans-epithelial electrical resistance (TER) after LPS exposure", "type": "cell-based", "settings": "aCT1 pre-treatment, 10 μg LPS, 72 hours", "experimental": "Normal human bronchial epithelial (NHBE) cells were exposed to 10 μg LPS. […] (n=3/group; p-values reported at 72 hours compared to LPS).\nas §1"}, "[5]": {"assay": "Intravenous (bolus) toxicity in rats", "settings": "rat, in vivo, intravenous administration, read-out: Maximum Tolerated Dose (clinical signs observed)", "experimental": "Intravenous administration (bolus) of aCT1 in rats was well tolerated and a 5 mg/kg dosing level was established as the no-observable-adverse-effect level (NOAEL). Clinical signs were only observed at aCT1 administration levels that are well above the therapeutic range of efficacy, following intravenous administration of aCT1 at ≥10 mg/kg (Maximum Tolerated Dose). The results of these studies uniformly support aCT1 tolerability when delivered locally and systemically via various routes."}, "[6]": {"settings": "human", "text": "(§2) Clinical trials have been undertaken to assess safety of topical delivery of aCT1."}, "human subjects": {"tested_on": "human subjects", "text": "as §2"}, "[7]": {"tested_on": "normal human bronchial epithelial cells (NHBEs)", "settings": "NHBEs treated with 100 mM alcohol"}, "[8]": {"tested_on": "ocular corneal injury models", "settings": "cited from earlier work"}},
  "note": "Entries after “also recorded” stand apart in the source; their conditions may differ. Peptide text beside a SMILES is read from it. * marks the point of attachment. Biotin = O=C1N[C@H]2[C@H](CS[C@H]2CCCCC(=O)*)N1; Ahx = NCCCCCC(=O)O",
  "data": [
    {"smiles": "CC[C@H](C)[C@H](NC(=O)[C@H](CCC(=O)O)NC(=O)[C@H](CC(C)C)NC(=O)[C@H](CC(=O)O)NC(=O)[C@H](CC(=O)O)NC(=O)[C@@H]1CCCN1C(=O)[C@H](CCCNC(=N)N)NC(=O)[C@@H]1CCCN1C(=O)[C@H](CCCNC(=N)N)NC(=O)[C@H](CCCCN)NC(=O)[C@H](CCCCN)NC(=O)[C@H](Cc1c[nH]c2ccccc12)NC(=O)[C@@H]1CCCN1C(=O)[C@H](CCCCN)NC(=O)[C@H](CCCNC(=N)N)NC(=O)[C@H](CCCNC(=N)N)NC(=O)[C@H](CC(N)=O)NC(=O)[C@@H]1CCCN1C(=O)[C@H](Cc1ccccc1)NC(=O)[C@H](Cc1c[nH]c2ccccc12)NC(=O)[C@@H](NC(=O)[C@H](CCCCN)NC(=O)[C@@H]1CCCN1C(=O)[C@H](CCC(N)=O)NC(=O)[C@H](CCCNC(=N)N)NC(=O)CCCCCNC(=O)CCCC[C@@H]1SC[C@@H]2NC(=O)N[C@@H]21)[C@@H](C)CC)C(=O)O", "note": "[aCT1] ({Biotin-Ahx}-RQPKIWFPNRRKPWKKRPRPDDLEI-OH; N-terminus and C-terminus assumed)", "values": [
      {"measurement": "survival", "setting": "[1]; lethal LPS 35 mg/kg intranasal, 5.76 mg/kg aCT1 intranasal immediately prior to LPS, p<0.0001 Log-rank", "result": "provides significant protection against lipopolysaccharide (LPS)-induced mortality; also recorded: significantly improved survival"},
      {"measurement": "survival", "setting": "[1]; lethal LPS, aCT1 six hours post LPS, p<0.001 Log-rank", "result": "provides significant protection against lipopolysaccharide (LPS)-induced mortality; also recorded: significantly improved survival"},
      {"measurement": "immune cell infiltration and alveolar edema (H&E lung histopathology)", "setting": "[2]; 14.34 mg/kg aCT1 immediately after CLP, lungs at 12 hours post CLP", "result": "significantly decreased immune cell infiltration and alveolar edema"},
      {"measurement": "survival", "setting": "[2]; 14.34 mg/kg aCT1 intravenously immediately after CLP, p=0.052 Log-rank", "result": "prolonged survival"},
      {"measurement": "survival", "setting": "[2]; aCT1 intravenously 6 hours post CLP, p<0.05 Log-rank", "result": "prolonged survival"},
      {"measurement": "TER / intercellular junction integrity", "setting": "[3]", "result": "stabilized intercellular junctions; also recorded: significantly increased TER readings"},
      {"measurement": "TER / barrier integrity", "setting": "[4]", "result": "stabilized barrier integrity; also recorded: significantly improved TER readings"},
      {"measurement": "MTD", "setting": "[5]", "result": "≥ 10", "unit": "mg/kg"},
      {"measurement": "half-life", "setting": "[6]", "result": "15 to 20", "unit": "min"},
      {"measurement": "immunogenicity (anti-aCT1 antibodies)", "setting": "human subjects; any preclinical study or clinical trial", "result": "not immunogenic"},
      {"measurement": "systemic exposure", "setting": "human subjects; pharmacokinetic studies in clinical trials, topical", "result": "no systemic exposure"},
      {"measurement": "drug related adverse events", "setting": "human subjects; topical delivery, over 482 human subjects", "result": "no drug related adverse events"},
      {"measurement": "electrical resistance (barrier function)", "setting": "[7]", "result": "improved electrical resistance"},
      {"measurement": "inflammatory signaling molecules", "setting": "[8]", "result": "reduced inflammatory signaling molecules such as IL-6, IL-1β, TNFα, Cox-2, MMP-9, and VEGF"}
    ]}
  ]
}
